Patent US20250170258A1, “DOSAGE REGIMEN” (priority 2022, published 2025)

System: pancreatic cancer PAXF 1657 patient-derived xenograft
Experiment: pancreatic cancer PAXF 1657 patient-derived xenograft model
Type: in vivo
Conditions: PAXF 1657 PDX, tested alone (single agent)
Protocol: Gemcitabine is a nucleoside metabolic inhibitor. It inhibits DNA synthesis by inhibiting the ribonucleotide reductase, cell cycle-specific for the S-phase (also blocks cellular progression at G1/S-phase). It has been used as monotherapy or combination chemotherapy to treat various cancers. […] ADCT-601 and gemcitabine were tested either alone or in combination in the pancreatic cancer PAXF 1657 patient-derived xenograft model.

Nc1ccn([C@@H]2O[C@H](CO)[C@@H](O)C2(F)F)c(=O)n1 [gemcitabine]
anti-tumour activity: limited anti-tumour activity
